# Where two headings read alike, the source gives them in different places.
# Legend:
# [1] = tested on: 4T1 cells; assay: MTT assay; format: cell-based, murine; settings: Mus musculus, read-out: IC50, µM (M ± SD)
# Experimental: (§1) The MCF-7 and MDA-MB-231 cells were cultured in the DMEM medium containing 10% of the FBS, HCC1954, T-47D, and 4T1 cells in the RPMI-1640 medium with the addition of 10% of the FBS, and MCF-10A cells in MEGM Mammary Epithelial Cell Growth Medium BulletKit supplemented with penicillin/streptomycin cocktail and 5% of horse serum. The cells were cultured in a […] atmosphere at 5% CO2 and 37 °C. After trypsinization, cells were counted using a Scepter 3.0 handheld automated cell counter (Millipore, Burlington, MA, USA).
# (§2) The MTT test was used to assess the metabolic activity of cells treated with the investigated substances following the Sigma-Aldrich manufacturer’s instructions. Briefly, compounds were added in 100 µL of the cultural medium, and cells were incubated for the next 24 and 48 h. Doxorubicin was used as a reference drug. The DMSO was added to dissolve the crystals of formazan. We used the ThermoScientific Evolution 201 UV–VIS spectrophotometer (ThermoFisher Scientific, Waltham, MA, USA) to measure the absorbance of formazan at 570 nm. The initial value of the relative number of cells in control (under 0.1% of the DMSO) was accepted as 100%. We used GraphPad Prism Version 9 to calculate the half-maximal inhibition concentration (IC50) of the studied compounds (the concentration of the drug that reduced cell viability by 50%).
# [2] = tested on: HCC1954 cells; assay: MTT assay; format: cell-based; settings: Homo sapiens, read-out: IC50, µM (M ± SD)
# Experimental: as §1, §2
# [3] = tested on: MCF-7 cells; assay: MTT assay; format: cell-based; settings: Homo sapiens, read-out: IC50, µM (M ± SD)
# Experimental: as §1, §2
# [4] = tested on: MDA-MB-231 cells; assay: MTT assay; format: cell-based; settings: Homo sapiens, read-out: IC50, µM (M ± SD)
# Experimental: as §1, §2
# [5] = tested on: T-47D cells; assay: MTT assay; format: cell-based; settings: Homo sapiens, T47D, read-out: IC50, µM (M ± SD)
# Experimental: as §1, §2
# [6] = tested on: MCF-10A cells; assay: MTT assay; format: cell-based, human
# Experimental: as §1, §2
# [7] = tested on: HCC1954 cells; assay: Clonogenic assay; format: cell-based, human; settings: Homo sapiens; HCC1954; 72 h exposure, 14 days culture; read-out: IC50 (M ± SD) in clonogenic assay
# Experimental: (§3) The clonogenic assay was carried out utilizing the previously published methodology. The MCF-7, MDA-MB-231, HCC1954, and MCF-10A cells (500 cells/2 mL) were seeded in a 12-well plate overnight. Afterward, studied derivatives or doxorubicin (1, 2.5, 5, 10, and 50 µM) were added to cells. The media was changed after 72 h to a compound-free one, and the cells were cultured for the following 14 days. Then, the cells were washed, fixed, and stained with 0.1% crystal violet. After washing, the plates were dried at room temperature. The colonies were recorded by ImageJ software (Version 1.30). The value of colonies in control (non-treated cells) was accepted as 100%. The effect of compounds on the colony-forming ability of cells was expressed as the percentage of colonies compared to the control.
# [8] = tested on: MCF-7 cells; assay: Clonogenic assay; format: cell-based, human; settings: for IC50: Homo sapiens, MCF7, MCF-7, 72 h exposure, 14 days culture, read-out: IC50 (M ± SD) in clonogenic assay; for formation of colonies: MCF-7, compound at 5 µM
# Experimental: as §3
# [9] = tested on: MDA-MB-231 cells; assay: Clonogenic assay; format: cell-based, human; settings: for IC50: Homo sapiens, MDA-MB-231, 72 h exposure, 14 days culture, read-out: IC50 (M ± SD) in clonogenic assay
# Experimental: as §3
# [10] = tested on: MCF-10A cells; assay: Clonogenic assay; format: cell-based; settings: Homo sapiens; for IC50: 72 h exposure, 14 days culture, read-out: IC50 (M ± SD) in clonogenic assay; for inhibition at 50 µM: compound at 50 µM, read-out: inhibition of the formation of colonies
# Experimental: as §3
# [11] = tested on: MDA-MB-231, 4T1, MCF-7, T-47D, and HCC1954 cells; assay: MTT assay, summary over breast carcinoma cell lines; format: cell-based; settings: for IC50: Breast carcinoma cell, 24 and 48 h, all five cancer cell lines and all three hybrids together, read-out: IC50, range over breast carcinoma cell lines; for selectivity index (SI = IC50 for MCF-10A/IC50 for human breast tumor cells): range over cell lines and time points
# Experimental: as §1, §2
# [12] = tested on: normal human keratinocytes (HaCaT); parameters: method as in PMID 37579525; settings: cited from earlier work
# [13] = tested on: mitogen-activated lymphocytes collected from the peripheral blood of a healthy donor; parameters: method as in PMID 37579525; settings: cited from earlier work
# [14] = Homo sapiens, MCF-10A, 24 h, MCF-10A, 24 h, read-out: IC50, µM (M ± SD)
# [15] = Homo sapiens, MCF-10A, 48 h, MCF-10A, 48 h, read-out: IC50, µM (M ± SD)
# [16] = Homo sapiens, MCF-10A, time point not specified (24 and 48 h), read-out: IC50 towards MCF-10A cells
# [17] = time point not specified (24 and 48 h), read-out: IC50 towards MCF-10A cells
"IC50 ([1]; 4T1, 24 h)","IC50 ([1]; 4T1, 48 h)","IC50 ([2]; HCC1954, 24 h)","IC50 ([2]; HCC1954, 48 h)","IC50 ([3]; MCF7, MCF-7, 24 h)","IC50 ([3]; MCF7, MCF-7, 48 h)","IC50 ([4]; MDA-MB-231, 24 h)","IC50 ([4]; MDA-MB-231, 48 h)",IC50 ([5]; 24 h),IC50 ([5]; 48 h),IC50 [7],IC50 [8],IC50 [9],Structure (SMILES),"IC50 [6, 14]","IC50 [6, 15]","IC50 [6, 16]","IC50 [6, 17]",formation of colonies [8],IC50 [10],inhibition at 50 µM [10],also measured
2.2 ± 0.19 µM,2.22 ± 0.25 µM,4.53 ± 0.18 µM,5.01 ± 0.23 µM,6.74 ± 0.64 µM,3.54 ± 0.14 µM,21.9 ± 9.92 µM,3.72 ± 0.22 µM,4.48 ± 0.51 µM,2.66 ± 0.21 µM,3.05 ± 0.03 µM,1.33 ± 0.1 µM,0.67 ± 0.08 µM,"O=C1CC(N2C(=O)C(=CC(Cl)=Cc3ccc([N+](=O)[O-])cc3)SC2=S)C(=O)N1c1ccc(Cl)cc1 (stereo not drawn) [Les-6294, 1-(4-chlorophenyl)-3-[5-[2-chloro-3-(4-nitrophenyl)prop-2-enylidene]-4-oxo-2-thioxothiazolidine-3-yl]pyrrolidine-2,5-dione]",> 100 µM,> 100 µM,> 100 µM,> 64.6 µM,totally inhibited,> 50 µM,37.1%,"formation of colonies ([9]; MDA-MB-231, compound at 5 µM): did not observe the growth; IC50 [11]: 1.37 to 21.9 µM; selectivity index (SI = IC50 for MCF-10A/IC50 for human breast tumor cells) [11]: 4.57–37.59; IC50 [12]: > 73.6 µM; IC50 [13]: 29 to 67 µM"
2.25 ± 0.34 µM,1.94 ± 0.15 µM,9.91 ± 0.17 µM,6.4 ± 0.25 µM,3.26 ± 0.4 µM,2.18 ± 0.19 µM,6.09 ± 0.33 µM,2.01 ± 0.12 µM,4.08 ± 0.56 µM,1.97 ± 0.58 µM,1.54 ± 0.02 µM,1.57 ± 0.12 µM,1.19 ± 0.03 µM,"O=C1CC(N2C(=O)C(=CC(Cl)=Cc3ccc([N+](=O)[O-])cc3)SC2=S)C(=O)N1c1ccc(Br)cc1 (stereo not drawn) [Les-6328, 1-(4-bromophenyl)-3-[5-[2-chloro-3-(4-nitrophenyl)prop-2-enylidene]-4-oxo-2-thioxothiazolidine-3-yl]pyrrolidine-2,5-dione]",> 100 µM,> 100 µM,> 100 µM,> 64.6 µM,totally inhibited,> 50 µM,25.9%,"formation of colonies ([9]; MDA-MB-231, compound at 2.5 µM): did not observe the growth; IC50 [11]: 1.37 to 21.9 µM; selectivity index (SI = IC50 for MCF-10A/IC50 for human breast tumor cells) [11]: 10.09–50.76"

# From PMC11352273, “The Proapoptotic Action of Pyrrolidinedione–Thiazolidinone Hybrids towards Human Breast Carcinoma Cells Does Not Depend on Their Genotype” (Cancers, 2024)
